Values joined by “and” are separate entries in the source; they are usually repeats but may differ in a detail not shown here. Identical values can stand only once.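 Cells were grown in 96-well plates and exposed to each compound for 48 hours at five concentrations; endpoints were interpolated linearly between bracketing concentrations, or set to the highest concentration if not reached. GI50 marks 50% less growth. TGI marks complete inhibition of growth.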

Some test systems named below: A498 renal; HCC-2998 colon; KM12 colon; MCF7 breast; NCI-H23 lung; NCI/ADR-RES ovarian; RXF 393 renal; SK-MEL-5 melanoma; SN12C renal; SNB-75 CNS.
What all share (experiment): inhibition of tumour cell growth, NCI panel, 48 h

Consider `CN(C)C/C=C/C(=O)Nc1ccc(C(=O)N2CCC[C@@H](Nc3ncc(Cl)c(-c4c[nH]c5ccccc45)n3)C2)cc1`, for which the GI50 in the assay on A498 renal is 0.192 µM; in the assay with HCC-2998 colon, 0.107 µM; in the assay with KM12 colon, 0.371 µM; with MCF7 breast, 0.0427 µM; with NCI-H23 lung, 0.189 µM; in the assay with NCI/ADR-RES ovarian it was 32.8 µM. Moreover, the GI50 was 0.115 µM with RXF 393 renal, 0.231 µM in the assay with SK-MEL-5 melanoma, 0.21 µM with SN12C renal and 0.0978 µM in the assay on SNB-75 CNS. For the same molecule, the TGI was 0.495 µM in the assay with A498 renal; 1.2 µM with HCC-2998 colon; 12.1 µM in the assay with KM12 colon; 7.16 µM with MCF7 breast; 0.783 µM with NCI-H23 lung; more than 100 µM with NCI/ADR-RES ovarian. Also, the TGI amounted to 0.561 µM in the assay on RXF 393 renal, 0.618 µM in the assay with SK-MEL-5 melanoma, 9.29 µM with SN12C renal and 0.444 µM in the assay with SNB-75 CNS.
On to `O=C(Nc1cc(S(=O)(=O)c2ccc(Cl)cc2)ccc1Cl)c1cc(I)cc(I)c1O`, for which the GI50 was 15.3 µM with A498 renal; 13.2 µM in the assay on HCC-2998 colon; 14.2 µM in the assay with KM12 colon; 18.4 µM in the assay with MCF7 breast; 16.5 µM in the assay on NCI-H23 lung; 18.7 µM in the assay with NCI/ADR-RES ovarian. Besides, the GI50 in the assay on RXF 393 renal is 15.1 µM; in the assay with SK-MEL-5 melanoma, 14.9 µM; with SN12C renal it was 16.1 µM; in the assay on SNB-75 CNS, 19.7 µM. The TGI in the assay with A498 renal was found to be 31.6 µM; with HCC-2998 colon, 27.2 µM; with KM12 colon it was 27.4 µM; in the assay with MCF7 breast it was 36.9 µM; in the assay on NCI-H23 lung, 33.9 µM; with NCI/ADR-RES ovarian it was 44.6 µM. Also, the TGI with RXF 393 renal was found to be 35.5 µM; in the assay with SK-MEL-5 melanoma it was 28.3 µM; in the assay on SN12C renal it was 34.8 µM; in the assay on SNB-75 CNS, 43.1 µM.
For the molecule `COc1cc([C@H]2c3[nH]c4ccccc4c3C[C@H]3COC(=O)N32)cc(OC)c1O`, the TGI in the assay on A498 renal is 20.9 µM; in the assay with HCC-2998 colon it was 27 µM; in the assay on KM12 colon it was 20.7 µM; with MCF7 breast, 37.1 µM; with NCI-H23 lung it was 17.1 µM; in the assay on NCI/ADR-RES ovarian, more than 100 µM. Moreover, the TGI in the assay on RXF 393 renal worked out at 1.51 µM; in the assay on SK-MEL-5 melanoma, 17.4 µM; in the assay on SN12C renal, 59.7 µM; in the assay with SNB-75 CNS, 3.2 µM.
As to `Cn1cnc([N+](=O)[O-])c1Sc1nc(N)nc2nc[nH]c12`, the GI50 is more than 23.7 µM with A498 renal; 3.79 µM in the assay with HCC-2998 colon; 3.94 µM in the assay with KM12 colon; 2.47 µM in the assay on MCF7 breast; 5.61 µM with NCI-H23 lung; 2.17 µM in the assay with NCI/ADR-RES ovarian. Further, the GI50 in the assay on RXF 393 renal is 5.09 µM; in the assay with SK-MEL-5 melanoma, 3.89 µM; in the assay on SN12C renal, 6.7 µM; in the assay on SNB-75 CNS, 1.08 µM. Moreover, the TGI is more than 100 µM in the assay with A498 renal; more than 66.3 µM in the assay with HCC-2998 colon; more than 100 µM with KM12 colon; more than 100 µM with MCF7 breast; more than 100 µM in the assay on NCI-H23 lung; more than 100 µM with NCI/ADR-RES ovarian. Further, the TGI in the assay with RXF 393 renal was more than 91.7 µM; in the assay with SK-MEL-5 melanoma it was 22.4 µM; in the assay with SN12C renal it was more than 100 µM; in the assay on SNB-75 CNS, more than 100 µM.
In the case of `CC[C@@]1(O)C(=O)OCc2c1cc1n(c2=O)Cc2cc3c(N)cccc3nc2-1`, the GI50 in the assay with A498 renal was 0.0896 µM; in the assay on HCC-2998 colon, 0.0239 µM; in the assay with KM12 colon, 0.0151 µM; in the assay with MCF7 breast it was 0.00482 µM; with NCI-H23 lung, 0.00525 µM; with NCI/ADR-RES ovarian, 0.0158 µM and < 0.0151 µM. Also, the GI50 in the assay on RXF 393 renal was 0.0893 µM; in the assay with SK-MEL-5 melanoma, 0.0214 µM; in the assay on SN12C renal, 0.00812 µM. The TGI in the assay with A498 renal is 0.611 µM; in the assay with HCC-2998 colon it was 1.39 µM; in the assay with KM12 colon, 11.6 µM; in the assay with MCF7 breast it was 4.85 µM; in the assay on NCI-H23 lung it was 0.0511 µM and 0.162 µM; in the assay with NCI/ADR-RES ovarian it was 2.08 µM. Moreover, the TGI in the assay with RXF 393 renal was 0.34 µM; in the assay on SK-MEL-5 melanoma, 0.0806 µM; in the assay with SN12C renal, more than 23.3 µM; in the assay with SNB-75 CNS, 0.0711 µM and 0.231 µM.
`Cc1cc(NC(=O)NC(=O)c2ccccc2N(C)C)ccc1Oc1ncc(Br)cn1`: the TGI with A498 renal is 6.71 µM; in the assay with HCC-2998 colon, 11.8 µM; with KM12 colon it was more than 38 µM; in the assay on MCF7 breast, 29.2 µM; with NCI-H23 lung, 53.4 µM; with NCI/ADR-RES ovarian it was 24.6 µM. Further, the TGI in the assay on RXF 393 renal was 0.698 µM and 6.37 µM; in the assay on SK-MEL-5 melanoma, 4.11 µM; with SN12C renal, more than 100 µM; in the assay on SNB-75 CNS, 0.428 µM and 0.555 µM. Besides, the GI50 is 1.1 µM in the assay with HCC-2998 colon; 2.51 µM in the assay with NCI-H23 lung; 0.242 µM in the assay on RXF 393 renal; 0.578 µM with SN12C renal; 0.11 µM in the assay with SNB-75 CNS.
Regarding `CCCn1cnc2c(SCc3ccccc3)nc(N)nc21`, the GI50 with A498 renal is 19.7 µM; in the assay with HCC-2998 colon, more than 100 µM; in the assay on KM12 colon, more than 100 µM; in the assay on MCF7 breast it was more than 100 µM; with NCI-H23 lung, more than 100 µM; in the assay on NCI/ADR-RES ovarian, 63.2 µM. The GI50 with RXF 393 renal is 24.4 µM; in the assay on SK-MEL-5 melanoma it was 21.2 µM; in the assay on SN12C renal, more than 100 µM; with SNB-75 CNS, more than 100 µM. Moreover, the TGI is 75.2 µM in the assay on A498 renal; more than 100 µM in the assay on HCC-2998 colon; more than 100 µM in the assay with KM12 colon; more than 100 µM with MCF7 breast; more than 100 µM with NCI-H23 lung; more than 100 µM with NCI/ADR-RES ovarian. Also, the TGI in the assay with RXF 393 renal, with SK-MEL-5 melanoma, in the assay on SN12C renal and in the assay with SNB-75 CNS was more than 100 µM throughout.
For the molecule `Cc1cc(=O)oc2cc(OCCn3c(C)nn(-c4ccc(Cl)cc4)c3=O)ccc12`, the GI50 in the assay on A498 renal was 1.13 µM; in the assay on HCC-2998 colon, 3.59 µM; in the assay with KM12 colon, 1.66 µM; in the assay on MCF7 breast, 2.7 µM; with NCI-H23 lung, 2.83 µM; with NCI/ADR-RES ovarian it was 1.64 µM. For the same molecule, the GI50 in the assay with RXF 393 renal is 2.76 µM; in the assay with SK-MEL-5 melanoma it was 0.848 µM; in the assay on SN12C renal, 5.54 µM; with SNB-75 CNS, 2.22 µM. The TGI with A498 renal is 31.9 µM; with HCC-2998 colon, more than 100 µM; with KM12 colon, more than 100 µM; with MCF7 breast, more than 100 µM; with NCI-H23 lung, more than 100 µM; in the assay with NCI/ADR-RES ovarian it was more than 100 µM. For the same molecule, the TGI with RXF 393 renal was 30 µM; in the assay with SK-MEL-5 melanoma, more than 100 µM; in the assay with SN12C renal it was more than 100 µM; in the assay with SNB-75 CNS it was 15.1 µM.

(Values after PubChem BioAssay (NCI).)
